In patent US9193728B2, “Fused tetracyclic pyrido [4,3-B] indole and pyrido [3,4-B] indole derivatives and methods of use” (Medivation Technologies, Inc., priority 2010, dated 2015):

How the values were obtained:
[1] = molecular target: T1, human recombinant serotonin (5-Hydroxytryptamine) 5-HT2A receptor (Homo sapiens, UniProt P28223); assay: Serotonin 5-HT2A radioligand binding ([3H]Ketanserin); conditions: for inhibition at 0.1 µM / Serotonin (0.1 μM) 5-HT2A, percentage inhibition of ligand binding: compound at 0.1 μM; for inhibition at 0.1 µM: read-out: Serotonin (0.1 μM) 5-HT2A, percentage inhibition of ligand binding
T1 construct: expressed in transfected cells; host or cells: CHO-K1
Method: To evaluate in radioligand binding assays the activity of compounds of the invention, human recombinant serotonin (5-Hydroxytryptamine) 5-HT2A receptor expressed in Chinese hamster ovary (CHO)-K1 cells (Bonhaus, D. et al, Br. J. Pharmacol. 115:622, 1995; Saucier, C. et al, J. Neurochem. 68:1998, 1997) in a 50 mM Tris-HCl buffer, pH 7.4, was used. Compounds of the invention were incubated with 0.5 nM [^3H]Ketanserin for 60 min. at 25° C. Non-specific binding was estimated in the presence of 1 μM Mianserin. Receptor proteins were filtered and washed, the filters were then counted to determine [^3H]Ketanserin specifically bound. Compounds were screened at 1 μM or lower, using 1% DMSO as vehicle. Biochemical assay results are presented as the percent inhibition of specific binding in Table 4.

[2] = molecular target: T2, human recombinant serotonin (5-Hydroxytryptamine) 5-HT2C receptor (Homo sapiens, UniProt P28335); assay: Serotonin 5-HT2C radioligand binding ([3H]Mesulergine); conditions: for inhibition at 0.1 µM / Serotonin (0.1 μM) 5-HT2C, percentage inhibition of ligand binding: compound at 0.1 μM; for inhibition at 0.1 µM: read-out: Serotonin (0.1 μM) 5-HT2C, percentage inhibition of ligand binding
T2 construct: expressed in transfected cells; host or cells: CHO-K1
T2 sequence (P28335 33-458): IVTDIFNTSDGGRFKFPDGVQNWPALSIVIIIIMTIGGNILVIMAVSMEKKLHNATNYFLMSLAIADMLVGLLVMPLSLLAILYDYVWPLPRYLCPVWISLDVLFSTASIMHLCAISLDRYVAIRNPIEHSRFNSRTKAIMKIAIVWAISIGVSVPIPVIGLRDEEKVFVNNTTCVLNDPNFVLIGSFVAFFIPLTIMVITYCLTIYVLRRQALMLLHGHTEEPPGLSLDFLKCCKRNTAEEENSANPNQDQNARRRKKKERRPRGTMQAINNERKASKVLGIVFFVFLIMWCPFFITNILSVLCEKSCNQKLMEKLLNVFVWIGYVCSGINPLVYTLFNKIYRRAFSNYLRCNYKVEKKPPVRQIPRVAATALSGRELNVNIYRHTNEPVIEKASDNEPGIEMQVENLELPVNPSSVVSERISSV
Method: To evaluate in radioligand binding assays the activity of compounds of the invention, human recombinant serotonin (5-Hydroxytryptamine) 5-HT2C receptor expressed in Chinese hamster ovary (CHO)-K1 cells (Wolf, W. et al, J. Neurochem. 69:1449, 1997) in a modified Tris-HCl buffer (50 mM Tris-HCl, pH 7.4, 0.1% Ascorbic Acid, 10 μM Pargyline) was used. Compounds of the invention were incubated with 1 nM [^3H]Mesulergine for 60 min. at 25° C. Non-specific binding was estimated in the presence of 1 μM Mianserin. Receptor proteins were filtered and washed, the filters were then counted to determine [^3H]Mesulergine specifically bound. Compounds were screened at 1 μM or lower, using 1% DMSO as vehicle. Biochemical assay results are presented as the percent inhibition of specific binding in Table 4.

[3] = molecular target: T3, human recombinant histamine H2 receptor (Homo sapiens, UniProt P25021); assay: Histamine H2 radioligand binding ([125I]Aminopotentidine); conditions: compound at 1 μM; 0.1 nM [125I]Aminopotentidine; read-out: Histamine Binding (1 μM) H2, percentage inhibition
T3 construct: expressed in transfected cells; host or cells: CHO-K1
Method: To evaluate in radioligand binding assays the activity of compounds of the invention, human recombinant histamine H2 receptor expressed in Chinese hamster ovary (CHO) K1 cells (Ruat, M., Proc. Natl. Acad. Sci. USA. 87(5):1658, 1990) in a 50 mM Phosphate buffer, pH 7.4 was used. Compounds of the invention were incubated with 0.1 nM [^125I]Aminopotentidine for 120 min. at 25° C. Non-specific binding was estimated in the presence of 3 μM Tiotidine. Receptor proteins were filtered and washed, the filters were then counted to determine [^125I]Aminopotentidine specifically bound. Compounds were screened at 1 μM or lower, using 1% DMSO as vehicle. Biochemical assay results are presented as the percent inhibition of specific binding in Table 2.

[4] = molecular target: T4, human recombinant serotonin (5-Hydroxytryptamine) 5-HT5A receptor (Homo sapiens, UniProt P47898); assay: Serotonin 5-HT5A radioligand binding ([3H]LSD); conditions: compound at 0.1 μM; for inhibition at 0.1 µM: read-out: Serotonin (0.1 μM) 5-HT5A, percentage inhibition of ligand binding
T4 construct: expressed in transfected cells; host or cells: CHO-K1
Method: To evaluate in radioligand binding assays the activity of compounds of the invention, human recombinant serotonin (5-Hydroxytryptamine) 5-HT5A receptor expressed in Chinese hamster ovary (CHO)-K1 cells (Rees, S. et al, FEBS Lett. 355:242, 1994) in a modified Tris-HCl buffer (50 mM Tris-HCl, pH 7.4, 10 mM MgCl2, 0.5 mM EDTA) was used. Compounds of the invention were incubated with 1.7 nM [^3H]Lysergic acid diethylamide (LSD) for 60 min. at 37° C. Non-specific binding was estimated in the presence of 100 μM Serotonin (5-HT). Receptor proteins were filtered and washed, the filters were counted to determine [^3H]LSD specifically bound. Compounds were screened at 1 μM or lower, using 1% DMSO as vehicle. Biochemical assay results are presented as the percent inhibition of specific binding in Table 4.

[5] = molecular target: T5, human recombinant adrenergic α2C receptor (Homo sapiens, UniProt P18825); assay: Adrenergic α2C radioligand binding ([3H]MK-912); conditions: compound at 0.1 μM; for inhibition at 0.1 µM: read-out: Adrenergic (0.1 μM) a2C, percentage inhibition of ligand binding
T5 construct: expressed in transfected cells; host or cells: insect Sf9 cells
T5 sequence (P18825 1-462): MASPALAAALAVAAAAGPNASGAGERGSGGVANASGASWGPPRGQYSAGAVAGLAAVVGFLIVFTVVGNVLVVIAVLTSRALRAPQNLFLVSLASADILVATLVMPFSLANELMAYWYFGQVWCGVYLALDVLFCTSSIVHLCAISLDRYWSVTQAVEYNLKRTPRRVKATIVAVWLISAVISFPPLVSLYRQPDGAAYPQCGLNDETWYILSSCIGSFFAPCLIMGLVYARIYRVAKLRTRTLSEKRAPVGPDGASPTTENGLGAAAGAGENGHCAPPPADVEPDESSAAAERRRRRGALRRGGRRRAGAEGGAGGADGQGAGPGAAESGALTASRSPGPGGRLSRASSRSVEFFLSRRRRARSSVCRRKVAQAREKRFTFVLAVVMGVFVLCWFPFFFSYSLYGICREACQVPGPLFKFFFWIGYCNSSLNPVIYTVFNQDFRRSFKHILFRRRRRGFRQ
Method: To evaluate in radioligand binding assays the activity of compounds of the invention, human recombinant adrenergic α2C receptor expressed in insect Sf9 cells (Uhlen, S. et al, J. Pharmacol. Exp. Ther. 271:1558, 1994) in a modified Tris-HCl buffer (50 mM Tris-HCl, pH 7.4, 12.5 mM MgCl2, 2 mM EDTA) was used. Compounds of the invention were incubated with 1 nM [^3H]MK-912 for 60 min. at 25° C. Non-specific binding was estimated in the presence of 10 μM WB-4101. Receptor proteins were filtered and washed, the filters were then counted to determine [^3H]MK-912 specifically bound. Compounds were screened at 1 μM or lower, using 1% DMSO as vehicle. Biochemical assay results are presented as the percent inhibition of specific binding in Table 3.

T1 sequence (P28223 whole entry): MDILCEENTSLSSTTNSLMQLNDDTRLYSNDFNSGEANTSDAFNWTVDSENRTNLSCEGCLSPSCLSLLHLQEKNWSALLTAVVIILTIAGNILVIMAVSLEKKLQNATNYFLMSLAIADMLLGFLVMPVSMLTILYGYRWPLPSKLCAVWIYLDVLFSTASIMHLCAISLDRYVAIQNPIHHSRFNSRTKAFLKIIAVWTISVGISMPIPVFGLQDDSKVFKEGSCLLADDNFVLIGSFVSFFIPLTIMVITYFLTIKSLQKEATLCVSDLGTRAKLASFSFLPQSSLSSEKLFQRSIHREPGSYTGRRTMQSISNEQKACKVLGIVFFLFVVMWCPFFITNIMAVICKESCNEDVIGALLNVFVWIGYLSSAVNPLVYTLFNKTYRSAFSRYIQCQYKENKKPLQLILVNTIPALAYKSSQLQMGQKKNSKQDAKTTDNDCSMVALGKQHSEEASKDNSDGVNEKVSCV
T4 sequence (P47898 whole entry): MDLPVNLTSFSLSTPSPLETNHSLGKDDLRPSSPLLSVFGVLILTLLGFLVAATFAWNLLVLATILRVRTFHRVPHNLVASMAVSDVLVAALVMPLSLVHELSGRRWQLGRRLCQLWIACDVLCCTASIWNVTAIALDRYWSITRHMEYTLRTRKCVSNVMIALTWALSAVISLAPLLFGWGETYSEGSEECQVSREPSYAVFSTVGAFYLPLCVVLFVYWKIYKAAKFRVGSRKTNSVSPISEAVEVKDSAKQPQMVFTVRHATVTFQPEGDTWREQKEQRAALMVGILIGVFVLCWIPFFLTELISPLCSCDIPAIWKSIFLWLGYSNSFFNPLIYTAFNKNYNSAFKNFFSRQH
T3 sequence (P25021 whole entry): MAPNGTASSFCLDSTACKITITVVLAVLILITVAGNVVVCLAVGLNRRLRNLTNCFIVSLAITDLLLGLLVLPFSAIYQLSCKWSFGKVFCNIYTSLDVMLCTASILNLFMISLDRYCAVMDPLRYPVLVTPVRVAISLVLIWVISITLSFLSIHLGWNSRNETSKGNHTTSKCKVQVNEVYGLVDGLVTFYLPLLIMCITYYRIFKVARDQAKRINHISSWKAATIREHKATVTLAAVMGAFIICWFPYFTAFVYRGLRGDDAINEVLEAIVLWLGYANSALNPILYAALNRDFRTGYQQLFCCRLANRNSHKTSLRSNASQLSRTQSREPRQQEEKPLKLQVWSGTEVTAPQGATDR

Compound	inhibition at 0.1 µM [1]	inhibition at 1 µM ([1]; compound at 1 μM, read-out: Serotonin (1 μM) 5-HT2A, percentage inhibition of ligand binding)	inhibition at 0.1 µM [2]	inhibition at 1 µM ([2]; compound at 1 μM, read-out: Serotonin (1 μM) 5-HT2C, percentage inhibition of ligand binding)	inhibition at 1 µM [3]	inhibition at 0.1 µM [4]	inhibition at 0.1 µM [5]	Serotonin (0.1 μM) 5-HT2A, percentage inhibition of ligand binding [1]	Serotonin (0.1 μM) 5-HT5A, percentage inhibition of ligand binding [4]	Serotonin (0.1 μM) 5-HT2C, percentage inhibition of ligand binding [2]	Adrenergic (0.1 μM) a2C, percentage inhibition of ligand binding [5]
Cc1cc2c3c(c1)c1c(n3CC(c3ccc(F)cc3)C2)CCN(C)C1 (centres unmarked) [Compound 3]	69%	94%	54%	95%	75%						
Cc1cc2c3c(c1)c1c(n3CC(C)(c3ccc(C)nc3)OC(C)C2)CCN(C)C1 (centres unmarked) [Compound 160]	-4%		7%			2%	16%				
Cc1cc2c3c(c1)c1c(n3CC(C)(c3ccc(C)nc3)OC2C)CCN(C)C1 (centres unmarked) [Compound 161]								−2%	4%	−4%	3%
Cc1cc2c3c(c1)c1c(n3C[C@@](C)(c3ccncc3)O[C@H]2C)CCN(C)C1 [Compound 162]	7%		6%			16%	13%				
Cc1cc2c3c(c1)c1c(n3C[C@](C)(c3ccncc3)O[C@H]2C)CCN(C)C1 [Compound 163]	3%		5%			10%	12%				
Cc1cc2c3c(c1)c1c(n3CC(C)(c3ccc(C)nc3)OC2C)CCN(C)C1 (centres unmarked) [Compound 164]								0%	−22%	2%	−4%
Cc1cc2c3c(c1)c1c(n3CC(C)(c3ccncc3)OC(C)C2)CCN(C)C1 (centres unmarked) [Compound 165]	12%		14%			16%	20%				
